Measurements as given in US8361507B2, “Eprosartan mesylate crystalline particles and a process for preparing pure eprosartan” (Hetero Drugs Limited, priority 2007, dated 2013).
Counter-ions that a name gives are not always drawn.

Legend:
[1] = crystalline particles disclosed in WO 00/53282; cited from earlier work
[2] = Specific surface area by Brunauer-Emmett-Teller (B.E.T.) nitrogen absorption; assay type: physicochemical; settings: B.E.T. method, crystalline particles
Text: Specific surface area is defined in units of square meters per gram (m^2/g). It is usually measured by nitrogen absorption analysis. In this analysis, nitrogen is absorbed on the surface of the substance. The amount of the absorbed nitrogen (as measured during the absorption or the subsequent desorption process) is related to the surface area via a formula known as the B.E.T. formula.

[3] = cited from earlier work
[4] = Particle size distribution by laser diffraction (Sympatec Helos); assay type: physicochemical; settings: crystalline particles
Text: As used herein “Particle Size Distribution (P.S.D.)” means the cumulative volume size distribution of equivalent spherical diameters as determined by laser diffraction at 1 bar dispersive pressure in a Sympatec Helos equipment. “Mean particle size distribution, i.e., d(0.5)” correspondingly, means the median of said particle size distribution.

| SMILES | d90 value [1] | Specific Surface Area [2] | solubility in methanol ([3]; methanol) | solubility in water ([3]; water) | 90 volume-% of the particles (D90) [4] [μm] | Mean particle size (D50) [4] [μm] |
| --- | --- | --- | --- | --- | --- | --- |
| CCCCc1ncc(/C=C(\Cc2cccs2)C(=O)O)n1Cc1ccc(C(=O)O)cc1 [eprosartan mesylate, (αE)-α-[[2-n-Butyl-1-[(4-carboxyphenyl)methyl]-1H-imidazol-5-yl]methylene-2-thiophenepropanoic acid monomethanesulfonate] | less than 10 micron | below 0.6 m^2/g | soluble | practically insoluble |  |  |
| CCCCc1ncc(/C=C(\Cc2cccs2)C(=O)O)n1Cc1ccc(C(=O)O)cc1 [Example 2, eprosartan mesylate] |  | 1.09 m^2/g |  |  | 33.48 | 12.13 |
| CCCCc1ncc(/C=C(\Cc2cccs2)C(=O)O)n1Cc1ccc(C(=O)O)cc1 [Example 4, eprosartan mesylate] |  | 1.11 m^2/g |  |  | 30.42 | 11.23 |
| CCCCc1ncc(/C=C(\Cc2cccs2)C(=O)O)n1Cc1ccc(C(=O)O)cc1 [Reference Example 3, eprosartan mesylate] |  | 0.53 m^2/g |  |  | 213.72 | 70.56 |
